From article PMC10584170, “Machine learning-based phenotypic imaging to characterise the targetable biology of Plasmodium falciparum male gametocytes for the development of transmission-blocking antimalarials” (PLOS Pathogens, 2023)

Tests used:
[1] = test system: P. falciparum female gametocytes; experiment: P. falciparum Dual Gamete Formation Assay (PfDGFA), female readout (Pfs25-positive female gametes); assay type: cell-based, Plasmodium falciparum NF54; settings: for Average inhibition female (%): average of replicates; for % inhibition female (individual replicates) R1: replicate R1; for % inhibition female (individual replicates) R3: replicate R3; for % inhibition female (individual replicates) R4: replicate R4
Summary of the method: (§1)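 Two sex-specific readouts come from one well: male exflagellation centres recorded by brightfield video right after activation, and female gametes scored by Cy3-anti-Pfs25 fluorescence after 24 h at 28°C.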

[2] = test system: P. falciparum male gametocytes; experiment: P. falciparum Dual Gamete Formation Assay (PfDGFA), male readout (exflagellation); assay type: cell-based, Plasmodium falciparum NF54; settings: for Average inhibition male (%): average of replicates; for % inhibition male (individual replicates) R1: replicate R1; for % inhibition male (individual replicates) R3: replicate R3; for % inhibition male (individual replicates) R4: replicate R4; for Activity: hit = >50% inhibition in male or female readout in at least 3 replicates, 0 = no class assigned
Summary of the method: as §1

[3] = 2µM, 24h preincubation with gametocytes prior to induction of gametogenesis
[4] = 2µM, 24h preincubation, hits selected on >50% inhibition in the female readout across replicates
[5] = 2µM, 24h preincubation, hits selected on >50% inhibition in the male readout across replicates
[6] = PfDGFA at 2µM, 24h preincubation
[7] = 2µM, 24h preincubation, number of replicates with >50% inhibition in the female readout
[8] = 2µM, 24h preincubation, number of replicates with >50% inhibition in the male readout
[9] = PfDGFA at 2µM, 24h preincubation with gametocytes prior to induction of gametogenesis
[10] = PfDGFA at 2µM, 24h preincubation with gametocytes
[11] = 2µM, 24h preincubation with gametocytes

| Compound | Average inhibition female (%) [1, 3] | % inhibition female (individual replicates) R1 [1, 3] | % inhibition female (individual replicates) R3 [1, 3] | % inhibition female (individual replicates) R4 [1, 3] | Average inhibition male (%) [2, 3] | % inhibition male (individual replicates) R1 [2, 3] | % inhibition male (individual replicates) R3 [2, 3] | % inhibition male (individual replicates) R4 [2, 3] | HitlevelF [1, 7] | HitlevelM [2, 8] | also measured |
| --- | --- | --- | --- | --- | --- | --- | --- | --- | --- | --- | --- |
| NCCCNc1nccc(N2CCc3ncnc(Nc4ccc(OCc5cccc(F)c5)c(Cl)c4)c3C2)n1 [TCMDC-135456] | 13.8% | 10.7% | -9.6% | 40.7% | -16.9% | -14.5% | -30.0% | -11.8% | – | – | HitlevelF [1, 4]: 0; HitlevelM [2, 5]: 0; Activity [2, 6]: 0 |
| COc1cc2ccccc2cc1OCCCN1CCN(CC(c2ccc(F)cc2)N2CCN(C(C)C)CC2)CC1.Cl (stereo not drawn) [TCMDC-135496] | 22.9% | 29.5% | 8.0% | 29.0% | 6.1% | 10.5% | -16.9% | 18.2% | 0 | 0 | – |
| CC(C)N1CCN(C(CN2CCN(CCCOc3ccccc3-c3ccccc3)CC2)c2ccc(F)cc2)CC1.Cl (stereo not drawn) [TCMDC-135499] | 28.0% | 23.1% | 16.4% | 32.9% | 13.5% | 15.7% | 14.1% | 9.5% | 0 | 0 | – |
| CC(=O)Nc1cccc(Nc2nccc(-c3c(-c4cccc(NC(=O)c5c(F)cccc5F)c4)nn4ncccc34)n2)c1 [TCMDC-135548] | – | – | – | – | – | – | – | – | – | – | % inhibition female (individual replicates) R1 [1, 9]: -7.4%; % inhibition female (individual replicates) R3 [1, 9]: -25.4%; % inhibition female (individual replicates) R4 [1, 9]: -8.4%; Average inhibition female (%) [1, 6]: -11.7%; % inhibition male (individual replicates) R1 [2, 9]: 29.2%; % inhibition male (individual replicates) R3 [2, 9]: 23.6%; % inhibition male (individual replicates) R4 [2, 9]: -3.8%; Average inhibition male (%) [2, 6]: 8.8% |
| CCS(=O)(=O)c1ccc(OC)c(Nc2nccc(-c3c(-c4cccc(NC(=O)c5c(F)cccc5F)c4)nn4ncccc34)n2)c1 [TCMDC-135682] | 14.6% | 17.1% | 13.9% | 13.6% | 69.4% | 83.8% | – | 34.3% | – | – | HitlevelF [1, 4]: 0; HitlevelM [2, 5]: 2; Activity [2, 6]: 0 |
| C[C@@H](Oc1cc(-n2cnc3ccc(OCC4CCN(S(C)(=O)=O)CC4)cc32)sc1C(N)=O)c1ccccc1C(F)(F)F [TCMDC-135685] | 30.5% | 13.3% | 19.8% | 50.4% | 39.3% | 77.8% | 32.6% | -12.5% | 1 | 2 | – |
| COc1ccc2ncc(F)c(CCN3CCC(NCc4cc(F)c5c(c4)OCCO5)CC3)c2n1.Cl [TCMDC-135849] | – | – | – | – | – | – | – | – | – | – | % inhibition female (individual replicates) R1 [1, 9]: 9.2%; % inhibition female (individual replicates) R3 [1, 9]: -25.5%; % inhibition female (individual replicates) R4 [1, 9]: 10.6%; Average inhibition female (%) [1, 6]: -0.168%; % inhibition male (individual replicates) R1 [2, 9]: -15.0%; % inhibition male (individual replicates) R3 [2, 9]: -30.0%; % inhibition male (individual replicates) R4 [2, 9]: -21.8%; Average inhibition male (%) [2, 6]: -22.8% |
| COc1ccc(-c2cnc3[nH]cc(-c4ccncc4)c3c2)cc1OC [TCMDC-135853] | – | – | – | – | – | – | – | – | – | – | Average inhibition female (%) [1, 10]: 15.5%; % inhibition female (individual replicates) R1 [1, 10]: 9.0%; % inhibition female (individual replicates) R3 [1, 10]: 36.4%; % inhibition female (individual replicates) R4 [1, 10]: 5.3%; HitlevelF ([1]; number of replicates with >50% inhibition in the female readout, 2µM): 0; Average inhibition male (%) [2, 10]: 73.2%; % inhibition male (individual replicates) R1 [2, 10]: 70.5%; % inhibition male (individual replicates) R3 [2, 10]: 62.1%; % inhibition male (individual replicates) R4 [2, 10]: 76.3%; HitlevelM ([2]; number of replicates with >50% inhibition in the male readout, 2µM): 4 |
| CC(C)CN1CCC(COc2ccc3ncn(-c4cc(O[C@H](C)c5ccccc5C(F)(F)F)c(C(N)=O)s4)c3c2)CC1 [TCMDC-135856] | – | – | – | – | – | – | – | – | – | – | % inhibition female (individual replicates) R1 [1, 9]: -5.1%; % inhibition female (individual replicates) R3 [1, 9]: 3.7%; % inhibition female (individual replicates) R4 [1, 9]: -5.5%; Average inhibition female (%) [1, 6]: -0.7%; % inhibition male (individual replicates) R1 [2, 9]: 69.3%; % inhibition male (individual replicates) R4 [2, 9]: -19.8%; Average inhibition male (%) [2, 6]: 39.0% |
| COc1ccc2ccccc2c1CCCCN1CCN(CC(c2ccc(F)cc2)N2CCC(N3CCCC3)CC2)CC1.O=C(O)C(F)(F)F (stereo not drawn) [TCMDC-135866] | 23.8% | 27.0% | 20.6% | 10.9% | 26.2% | 24.9% | 0.4% | 58.9% | 0 | 1 | – |
| COc1ccc2ccccc2c1CCCCN1CCN(CC(c2ccc(F)cc2)N2CCC2)CC1.O=C(O)C(F)(F)F (stereo not drawn) [TCMDC-135867] | 37.8% | 32.4% | 22.8% | 37.2% | 8.0% | -5.9% | -10.3% | 17.6% | 1 | 0 | – |
| Cc1c(OC(C)C)nc2ccccc2c1C(=O)N[C@H](c1cccc(F)c1)C1CC1 [TCMDC-135994] | – | – | – | – | – | – | – | – | – | – | % inhibition female (individual replicates) R1 [1, 9]: 11.9%; % inhibition female (individual replicates) R3 [1, 9]: -14.7%; % inhibition female (individual replicates) R4 [1, 9]: 16.8%; Average inhibition female (%) [1, 6]: 1.3%; % inhibition male (individual replicates) R1 [2, 9]: 5.7%; % inhibition male (individual replicates) R3 [2, 9]: 14.1%; % inhibition male (individual replicates) R4 [2, 9]: 25.6%; Average inhibition male (%) [2, 6]: 14.7% |
| CCn1c(-c2nonc2N)nc2c(-c3ccccc3)ncc(OCCCCNCCc3ncc[nH]3)c21.O=C(O)C(F)(F)F [TCMDC-136000] | – | – | – | – | – | – | – | – | – | – | Average inhibition female (%) [1, 11]: 36.6%; % inhibition female (individual replicates) R1 [1, 11]: 29.5%; % inhibition female (individual replicates) R3 [1, 11]: 30.1%; % inhibition female (individual replicates) R4 [1, 11]: 56.9%; Average inhibition male (%) [2, 11]: 92.8%; % inhibition male (individual replicates) R1 [2, 11]: 92.7%; % inhibition male (individual replicates) R3 [2, 11]: 86.1%; % inhibition male (individual replicates) R4 [2, 11]: 98.9% |
| COc1ccc2ncc(F)c(CCN3C[C@H](CNCc4nc5c(cc4Cl)OCC(=O)N5)[C@H](O)C3)c2n1.Cl [TCMDC-136031] | 9.3% | 13.9% | -6.7% | 27.7% | 6.8% | 19.6% | -8.5% | 9.5% | – | – | HitlevelF [1, 4]: 0; HitlevelM [2, 5]: 0; Activity [2, 6]: 0 |
| COc1ccc2nccc([C@H](O)CN3CCC(NCc4ccc5c(c4C)OCCO5)CC3)c2n1.Cl [TCMDC-136066] | 6.6% | 21.2% | -26.0% | 9.8% | -9.6% | -4.0% | -34.1% | 0.2% | – | – | HitlevelF [1, 4]: 0; HitlevelM [2, 5]: 0; Activity [2, 6]: 0 |
| Cn1cc(CN2CCC(OC(c3ccccc3)c3ccc(Cl)cc3)CC2)cn1 (stereo not drawn) [TCMDC-136165] | 27.9% | 28.0% | 20.7% | 33.3% | 26.9% | 21.0% | 11.7% | 55.6% | 0 | 1 | – |
| CCn1c(-c2nonc2N)nc2c(-c3cccc(NC(=O)Nc4ccccc4OC)c3)ncc(OCCCN)c21.O=C(O)C(F)(F)F [TCMDC-136190] | 31.3% | 29.0% | 9.1% | 20.1% | 38.6% | 46.0% | 15.9% | 54.2% | 1 | 1 | – |
